Measured values from patent US4313943A, “7-Chloro-2,3-dihydro-5-phenyl-1-propargyl-1H-1,4-benzodiazepine-2-one, and a pharmaceutical composition thereof” (priority 1972, dated 1982).
Entries after “also recorded” stand apart in the source; their conditions may differ.

How the values were obtained:
Format in all cases: in vivo
[1] = Modifications in the electrocorticogram (ECoG) of unanesthetized animals, R index
Description: Twenty-four hours prior to the test, the surface of a test animal's skull was exposed and stainless steel electrodes were screwed through the lamina externa to make contact with the dura matter in the frontal, parietal and occipital regions, on both sides of the median and transverse sutures. The ECoG was recorded on a REEGA MINI HUIT (Alvar Electronic) encephalograph with a transverse circuit, with bi-frontal, bi-parietal and bi-occipital leads and a longitudinal circuit, with fronto-pariental and parieto-occipital leads on both left and right. One track was used to record respiration, with leads from two steel needles placed under the shin, on either side of the thorax.
Some test animals were kept in restraint cases placed in a relatively soundproof room and some were left free to move in metal cases measuring 40×50×30 cm, which were also kept in a relatively quiet environment.
The activity of the test compounds studied was judged on the one hand by the pattern of spontaneous electrogenesis, especially by the relative degree to which the three basic rhythms of the ECoG in the animals were represented; the theta rhythm (4-8 c/sec.), predominant and characteristic of the state of wakefulness in the posterior regions; bursts of rapid spiked waves (alpha rhythm, 9-15 c/sec.) recorded in the course of diffused wakefulness, and slow waves (delta rhythm, 0.5-3 c/sec.) which are absent in a state of wakefulness except in pathological conditions or in the presence of medicinal substances, a rhythm characteristic of slow-wave sleep. The rapid, low-voltage beta rhythm, not very characteristic of the ECoG in the test animals used and primarily superimposed on the other rhythms, was not analyzed.
Possible modifications in cortical reactivity were also investigated, using two types of stimulation, one comprised an auditory stimulus (whistle blasts) and the other a nociceptive stimulus delivered to the cutaneous nerve endings by pinching the dorsal skin with Kocher's clamps.
To the foregoing qualitative analysis, a quantitative analysis concerning the evolution of spontaneous electrogenesis under the influence of test compounds 1 and 4 was added. The activity of the two compounds was judged by variations in an "R" index, defined as the ratio between the theta waking rhythm, slow waves and bursts of rapid spiked waves. Initially, R was evaluated quantitatively on a scale from 0 to 4 and after this initial estimate, variations in the R index were rated on a scale from 0 to 5 as follows:
1. Maintenance of the value calculated in making the reference tracking (basal value) 0 since variation is nil.
2. Reduction in basal values
(a) reduction of basal value by one-half -1.
(b) observed value between 1/2 and 1/5 of basal value -2.
(c) observed value between 1/5 and 1/10 of basal value -3.
(d) observed value between 1/10 and 1/20 of basal value -4.
(e) observed value lower than 1/20 of basal value, reflecting maximum perturbation of spontaneous ECoG and expressing either a pathological condition or a state of slow-wave sleep, with the absence of theta rhythms and the exclusive presence of slow waves and/or bursts of rapid spiked waves -5.
Once the various values were allocated to each animal, the mean of these values were calculated for each experimental period. From these means, calculations were made of the percentages of variation as compared to a theoretical maximum value of -5 for each experimental period. The percentage for each period was calculated every 30 minutes for 7 hours, with a theoretical total of -10 per hour, then between 7 and 48 hours (theoretical total […]) and between the time of administering the test compound and the 48th hour (theoreticaltotal -90). Variations of 10% were not regarded as significant. All dosages were administered intragastrically through the esophageal tube. […]

[2] = Electrogenesis of various subcortical centers
Description: This study was conducted with test animals weighing between 2.6 and 2.8 kg, following the stereotaxic method of Monnier and Gangloff (Atlas et techniques stereotaxique pour le cerveau du lopin eveille, 1961, Elsevier Pub. Co.), permitting the stimulation of certain subcortical structures as well as a simultaneous detection and recording of their electrical activities, which were compared to that of reference cortical electrodes. In this study, the subcortical centers considered were the caudate nucleus, the dorsal hippocampus, the lateral thalamus, the mesenephalic reticular formation, and the hypothalamic reticular formation. Test compounds 1 and 4 were administered by the intragastric route with an identical dose of 7.5 mg/kg.
Spontaneous activity in the subcortical centers of the unanesthetized animals is characterized by desynchronized activity consisting of high amplitude and relatively slow rhythms (4 to 5 c/sec.), alternating with low amplitude rapid rhythms (12 to 13 c/sec.). Tracings from the hippocampus and caudate nucleus sometimes takes the form of bursts, which is less commonly the case from the thalamus. These may occur at the same time as bursts of rapid spikes arising from the frontal cortex. During periods of arousal, this desynchronized activity is followed by a synchronized theta rhythm (7 to 8 c/sec.) from the hippocampus and caudate nucleus and from the median thalamus, whereas the cortical and reticular electrical activities are transformed into ultra-rapid and low voltage rhythms (30μ volts).

[3] = Aggressive behavior elicited by foot shock; conditions: oral
Source text: The aggressive behavior of test animals was elicited by a conventional foot shock procedure after administration of Compounds 1 and 4.

[4] = Reduction in motor activity between 60 and 90 minutes; conditions: for Reduction in Motor Activity Between 60 and 90 Minutes: significance NS (comp. 1), 0.002 (comp. 4)
[5] = 7.5 mg/kg intragastric, 2 Hours
[6] = 7.5 mg/kg intragastric, 3 Hours
[7] = 7.5 mg/kg intragastric, 4 Hours
[8] = 7.5 mg/kg intragastric, 5 Hours
[9] = 7.5 mg/kg intragastric, 6 Hours
[10] = 7.5 mg/kg intragastric, 7 Hours
[11] = 7.5 mg/kg intragastric, 48 Hours (7-48 h)
[12] = 7.5 mg/kg intragastric, After 48 Hours (0-48 h total)
[13] = 15.0 mg/kg intragastric, 1 Hour
[14] = 15.0 mg/kg intragastric, 2 Hours
[15] = 15.0 mg/kg intragastric, 3 Hours
[16] = 15.0 mg/kg intragastric, 4 Hours
[17] = 15.0 mg/kg intragastric, 5 Hours
[18] = 15.0 mg/kg intragastric, 6 Hours
[19] = 15.0 mg/kg intragastric, 7 Hours
[20] = 15.0 mg/kg intragastric, 48 Hours (7-48 h)
[21] = 15.0 mg/kg intragastric, After 48 Hours (0-48 h total)
[22] = 30.0 mg/kg intragastric, 1 Hour
[23] = 30.0 mg/kg intragastric, 2 Hours
[24] = 30.0 mg/kg intragastric, 3 Hours
[25] = 30.0 mg/kg intragastric, 4 Hours
[26] = 30.0 mg/kg intragastric, 5 Hours
[27] = 30.0 mg/kg intragastric, 6 Hours
[28] = 30.0 mg/kg intragastric, 7 Hours
[29] = 30.0 mg/kg intragastric, 48 Hours (7-48 h)
[30] = 30.0 mg/kg intragastric, After 48 Hours (0-48 h total)

C#CCN1C(=O)CN=C(c2ccccc2Cl)c2cc(Cl)ccc21 [Compound 4, 7-chloro-2,3-dihydro-5-(2-chlorophenyl)-1-propargyl-1,H-1,4-benzodiazepine-2-one]
duration of effect on spontaneous electrogenesis ([1]; 1.5 mg/kg): 2 h
latency of the effects ([1]; 1.5 mg/kg): 25 min
average duration of effect on spontaneous electrogenesis ([1]; 3.75 mg/kg): 4 h
R index variation, Mean ([1]; 7.5 mg/kg intragastric, 1 Hour): -9.5
R index, % of Variation ([1]; 7.5 mg/kg intragastric, 1 Hour): -63.3%
R index variation, Mean [1, 5]: -7.5
R index, % of Variation [1, 5]: -75.0%
R index variation, Mean [1, 6]: -6.0
R index, % of Variation [1, 6]: -60.0%
R index variation, Mean [1, 7]: -3.0
R index, % of Variation [1, 7]: -30.0%
R index variation, Mean [1, 8]: -4.5
R index, % of Variation [1, 8]: -45.0%
R index variation, Mean [1, 9]: -1.5
R index, % of Variation [1, 9]: -15.0%
R index variation, Mean [1, 10]: -1.00
R index, % of Variation [1, 10]: -10.0%
R index variation, Mean [1, 11]: 0
R index, % of Variation [1, 11]: 0%
R index variation, Mean [1, 12]: -33.0
R index, % of Variation [1, 12]: -36.7%
R index variation, Mean [1, 13]: -13.0
R index, % of Variation [1, 13]: -86.7%
R index variation, Mean [1, 14]: -8.5
R index, % of Variation [1, 14]: -85.0%
R index variation, Mean [1, 15]: -7.0
R index, % of Variation [1, 15]: -70.0%
R index variation, Mean [1, 16]: -5.5
R index, % of Variation [1, 16]: -55.0%
R index variation, Mean [1, 17]: -5.0
R index, % of Variation [1, 17]: -50.0%
R index variation, Mean [1, 18]: -1.5
R index, % of Variation [1, 18]: -15.0%
R index variation, Mean [1, 19]: -1.50
R index, % of Variation [1, 19]: -15.0%
R index variation, Mean [1, 20]: +1.50
R index, % of Variation [1, 20]: +10.0%
R index variation, Mean [1, 21]: -40.5
R index, % of Variation [1, 21]: -45.0%
Cortical reactivity induced by exteroceptive stimulation ([1]; 30 mg/kg): remained unchanged
R index variation, Mean [1, 22]: -6.99
R index, % of Variation [1, 22]: -46.7%
R index variation, Mean [1, 23]: -5.32
R index, % of Variation [1, 23]: -53.2%
R index variation, Mean [1, 24]: -6.32
R index, % of Variation [1, 24]: -63.2%
R index variation, Mean [1, 25]: -4.99
R index, % of Variation [1, 25]: -49.9%
R index variation, Mean [1, 26]: -2.99
R index, % of Variation [1, 26]: -29.9%
R index variation, Mean [1, 27]: -2.33
R index, % of Variation [1, 27]: -23.3%
R index variation, Mean [1, 28]: -0.66
R index, % of Variation [1, 28]: -6.6%
R index variation, Mean [1, 29]: -1.98
R index, % of Variation [1, 29]: -13.2%
R index variation, Mean [1, 30]: -31.58
R index, % of Variation [1, 30]: -35.1%
duration of effects on spontaneous electrogenesis ([1]; 7.5, 15 and 30 mg/kg): at least 5 hours
caudate nucleus spikes ([2]; 7.5 mg/kg intragastric): less distinguishable
duration of slowing of mesencephalic and hypothalamic reticular formation activity ([2]; 7.5 mg/kg intragastric): ≥ 135 min
thalamic rhythms ([2]; 7.5 mg/kg intragastric): greater amplitude and lower frequency
EEG activity of the hippocampus ([2]; in vivo): slow and of high amplitude; also recorded: increase the amplitude of these activities and also reduce their frequency
ED50 [3]: 2.7 mg/kg
Reduction in Motor Activity Between 60 and 90 Minutes ([4]; 1 mg/kg): -69%
Reduction in Motor Activity Between 60 and 90 Minutes ([4]; 3 mg/kg): -82%
changes in motor activity / voluntary motility ([4]; in vivo): reduces voluntary motility
